Source: ChEMBL document CHEMBL1159160, “L-162,389: a potent orally active angiotensin II receptor antagonist with balanced affinity to both AT1 and AT2 receptor subtypes” (Bioorg Med Chem Lett, 1996)
pIC50: −log10 of the molar value.

Experiments:
[1] = target: T1, Type-2 angiotensin II receptor (Rattus norvegicus, UniProt P35351); assay: Compound was evaluated for inhibition of 125I[Sar1,Ile8] aII binding to rat midbrain membrane preparation Angiotensin II receptor, type 2; type: tissue-based
T1 sequence (P35351 whole entry): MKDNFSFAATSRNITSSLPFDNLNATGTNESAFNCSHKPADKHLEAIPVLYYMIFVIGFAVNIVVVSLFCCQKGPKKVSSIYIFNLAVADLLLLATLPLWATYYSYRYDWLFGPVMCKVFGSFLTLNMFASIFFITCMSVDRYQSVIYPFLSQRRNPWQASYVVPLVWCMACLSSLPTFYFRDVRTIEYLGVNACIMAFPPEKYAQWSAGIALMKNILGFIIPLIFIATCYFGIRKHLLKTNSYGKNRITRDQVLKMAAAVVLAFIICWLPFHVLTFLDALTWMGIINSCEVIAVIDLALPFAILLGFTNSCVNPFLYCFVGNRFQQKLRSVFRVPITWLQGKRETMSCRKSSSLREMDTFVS

[2] = target: T2, Type-1 angiotensin II receptor (Oryctolagus cuniculus, UniProt P34976); assay: Compound was evaluated for inhibition of 125I[Sar1,Ile8] all binding to rabbit aorta Angiotensin II receptor, type 1; type: tissue-based
T2 sequence (P34976 whole entry): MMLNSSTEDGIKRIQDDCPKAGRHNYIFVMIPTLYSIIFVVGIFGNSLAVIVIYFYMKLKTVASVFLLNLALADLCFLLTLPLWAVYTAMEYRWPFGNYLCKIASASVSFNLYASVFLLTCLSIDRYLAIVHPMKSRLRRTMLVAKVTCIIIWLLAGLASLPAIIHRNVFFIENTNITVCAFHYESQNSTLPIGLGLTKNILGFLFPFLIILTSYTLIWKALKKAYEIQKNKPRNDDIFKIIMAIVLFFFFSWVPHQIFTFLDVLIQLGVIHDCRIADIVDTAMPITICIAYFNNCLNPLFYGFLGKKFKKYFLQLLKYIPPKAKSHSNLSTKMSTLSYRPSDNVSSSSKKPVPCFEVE

Row | pIC50 [1] | pIC50 [2] | Structure (SMILES)
1 | 7.06 | 9.70 | CCCCOC(=O)NS(=O)(=O)c1ccc(C)cc1-c1ccc(Cn2c(CC)nc3c(C)cc(C)nc32)cc1
2 | 7.02 | 9.70 | CCCCOC(=O)NS(=O)(=O)c1ccccc1-c1ccc(Cn2c(CC)nc3c(C)cc(C)nc32)cc1
3 | 7.43 | 8.85 | CCCCOC(=O)NS(=O)(=O)c1ccc(CC)cc1-c1ccc(Cn2c(CC)nc3c(C)cc(C)nc32)cc1
4 | 8.42 | 8.68 | CCCCOC(=O)NS(=O)(=O)c1ccc(CCC)cc1-c1ccc(Cn2c(CC)nc3c(C)cc(C)nc32)cc1
